Source: patent US20220267374A1, “IMMUNITY INDUCER AND PHARMACEUTICAL COMPOSITION FOR PREVENTING OR TREATING AGING-RELATED DISEASES” (priority 2019, published 2022)
Ends that are not written are not given here.

Experiments:
[1] = tested on: arteriosclerotic plaque; test: Detection of arteriosclerotic plaque (Oil Red O staining); type: in vivo, ApoE/Gpnmb-DTR mice; settings: HFD from 4 to 16 weeks of age, s.c. vaccination at 8 weeks of age; vs control vaccine; FIGS. 2J, 2K
Protocol: Arteriosclerotic plaques were detected by Oil Red O staining. Briefly, autopsy removed adventitial fat to open the entire aorta and fixed the aorta flat in 4 v/v % paraformaldehyde at room temperature for 12 hours. Subsequently, the fixed aorta was washed by immersing in 60 v/v % isopropyl alcohol for 1 minute. Subsequently, the aorta was incubated at 37° C. for 15 minutes in 0.5% of Oil Red O (Sigma-Aldrich) solution (diluted with 60 v/v % isopropyl alcohol). After staining, the sample was briefly immersed in a 60 v/v % isopropyl alcohol solution and then washed with double distilled water. Atherosclerotic lesions were stained red with Oil Red O (refer to FIG. 1G). For the Oil Red O stained region, the plaque region was quantified by Image-J software (refer to FIG. 1H). […]
Detection of arteriosclerotic plaque and analysis of Gpnmb-dependent luciferase activity were performed using the same method as in “6.” and “2.” of Reference Example 1, except that ApoE/Gpnmb-DTR mice (16 weeks of age) bred while feeding HFD for 12 weeks from 4 to 16 weeks of age and administered with peptide vaccine 1 or a control vaccine by subcutaneous injection at a time point of 8 weeks of age were used (refer to FIG. 2J). The Oil Red O stained region was quantified by Image-J software (refer to FIG. 2K). […]

[2] = tested on: aging-related acidic β-galactosidase (SA-β-gal); test: SA-β-gal staining of adipose tissue; type: in vivo, C57BL/6 mice; settings: HFD-fed mice, 16 weeks of age, s.c. vaccination at 8 weeks of age, vs control vaccine, FIGS. 2G, 2H
Protocol: Aging-related acidic β-galactosidase (SA-β-gal) activity in adipose tissue was tested. Briefly, adipose tissue newly isolated from each Gpnmb-DTR mouse was incubated at 37° C. for 2 hours in a β-gal staining solution (containing 1 mg/ml of 5-bromo-4-chloro-3-indaryl β-D-galactopyranoside (X-gal), 5 mmol/L potassium ferrocyanide, 150 mmol/L of sodium chloride, 2 mmol/L of magnesium chloride, 0.01% of sodium deoxycholate, and 0.02% of nonidet-40). Then, the stained adipose tissue was captured (refer to FIG. 1C). SA-β-gal stainability was quantified by Image-J software (refer to FIG. 1D). […]
SA-β-gal staining was performed using the same method as in “3.” of Reference Example 1, except that adipose tissue collected from C57BL/6 mice (16 weeks of age) bred by feeding HFD from 4 weeks of age and administered with peptide vaccine 1 or a control vaccine by subcutaneous injection at a time point of 8 weeks of age was used. The SA-β-gal stainability was quantified by Image-J software (refer to FIG. 2H). […]

[3] = tested on: GPNMB protein; test: Western blotting analysis of adipose tissue; type: in vivo, C57BL/6 mice; settings: HFD-fed mice, 16 weeks of age, s.c. vaccination at 8 weeks of age, vs control vaccine, FIGS. 2C, 2D
Protocol: For adipose tissue collected from C57BL/6 mice (16 weeks of age) bred by feeding HFD from 4 weeks of age and administered with peptide vaccine 1 or a control vaccine by subcutaneous injection at a time point of 8 weeks of age, whole-cell lysates were prepared in lysis buffer (containing 10 mmol/L of Tris-HCl (pH 8), 140 mmol/L of sodium chloride, 5 mmol/L of EDTA, 0.025% of NaN3, 1 w/v % of Triton X-100, 1 w/v % of deoxycholic acid, 0.1 w/v % of SDS, 1 mmol/L of phenylmethylsulfonyl fluoride (PMSF), 5 μg/mL of leypeptin, 2 μg/mL of aprotinin, 50 mmol/L of NaF, and 1 mmol/L of […]). Then the lysates (40 to 50 μg) was separated by SDS-PAGE, the protein was transferred to a PVDF membrane (Millipore), and this was incubated with a primary antibody, followed by horseradish peroxidase (Jackson)-binding anti-rabbit immunoglobulin G (Jackson ImmunoResearch). GPNMB and β-actin were detected by enhanced chemiluminescence (Amersham). As a primary antibody, an anti-GPNMB antibody (AF2330, R & D Systems) (1/1000 dilution) was used, and as a control, anti-β-actin antibody (#4967, Cell Signaling) (1/5000 dilution) was used. As a secondary antibody, peroxidase-binding AffiniPure goat anti-rabbit IgG (H+L) (111-035-003, Jackson ImmunoResearch) (1/10000 dilution) was used. […]

With “RRGDGRWKD (also: KLH conjugate; listed as Mus musculus) [peptide vaccine 1, peptide of positions 63 to 71 of mouse GPNMB protein]” the “development of atheroma (arteriosclerotic plaque, Oil Red O stained region)” value [1] was “significantly decreased”, the SA-β-gal activity [2] was “decrease” and the “expression amount of GPNMB protein” value [3] was “decreased”.
